Measurements from publication PMC12428237, “Study on the Calcium Transport-Promoting Property and Mechanism of the Peptide–Calcium Complex DEEENDQVK–Ca Based on a Caco-2 Monolayer Model” (Foods, 2025).
Read-outs that look alike come from different tables or passages of the source.

Experiments:
Caco-2 monolayer [1] = assay: Fluo-4 AM fluorescence imaging of intracellular calcium influx; type: cell-based, human; settings: samples containing 150 μg/mL calcium, 24 h, Fluo-4 AM 4 μmol/L, confocal microscope
Description: Fluorescence imaging based on intracellular calcium influx was conducted to assess the calcium transport-promoting effect in the Caco-2 monolayer following the method of Men et al.. Log-phase cells were seeded at 1.5 × 10^5 cells/well in 35 mm laser confocal dishes and gently agitated to ensure uniform distribution. Cultures were maintained at 37 °C in 5% CO2 with daily medium replacement until confluent monolayers formed. Subsequently, CaCl2, DK + CaCl2, and DK–Ca solutions (each containing 150 μg/mL calcium) were added separately. The group without an added sample served as the control group. Following 24 h of incubation, the cells were washed thrice with prewarmed calcium-/magnesium-free HBSS buffer (pH 7.2). Under light-protected conditions, 200 µL of Fluo-4 AM (4 μmol/L) was applied to cover the cells. Following 30 min incubation at 37 °C and subsequent washes, cells were dark-adapted for 10 min at room temperature for de-esterification. Imaging was conducted using a confocal microscope (excitation at 496 nm, Zeiss LSM980 Airyscan2, Carl Zeiss, Germany ), followed by quantification of the fluorescence intensity with ImageJ 1.54 g software.

Caco-2 monolayer [2] = assay: Calcium transport assay in Caco-2 monolayer model; type: cell-based, human; settings: 7.5 mM CaCl2 on AP side, AP to BL, HBSS pH 7.4, 37 °C, 120 min, calcium colorimetric kit 575 nm; mean ± SD, n = 3
Description: (§1) Caco-2 cells (passages 15–30) were seeded at 1 × 10^5 cells/mL in Transwell chambers (12 mm, 0.4 μm pores, polycarbonate membrane, 1.12 cm^2 area) to establish a Caco-2 monolayer model. The culture medium (0.5 mL in the apical and 1.5 mL in the basolateral) was refreshed every 48 h (first week), then daily (next two weeks). The integrity of the Caco-2 cell monolayer model was verified by the following multiple indicators: Transepithelial electrical resistance (TEER) was monitored every 48 h using an epithelial voltohmmeter (RE1600, Beijing Jingong Hongtai Technology Co., Ltd., Beijing, China). Alkaline phosphatase (ALP) activity was measured on days 8, 12, 14, 16, and 21 after inoculation utilizing an ALP assay kit, following the manufacturer’s protocol. Transepithelial permeability was evaluated using sodium fluorescein following the method of Qiu et al..
Caco-2 monolayer models with a TEER value exceeding 500 Ω·cm^2 are permitted for calcium transport studies. Following three sequential washes with Hank’s balanced salt solution (HBSS; calcium/magnesium-free, pH 7.4), monolayers were equilibrated at 37 °C for 30 min. Afterward, the Transwell chambers were moved to fresh receiver plates for transport assays.
Concentration-dependent CaCl2 transport assay: 0.5 mL of CaCl2 solution (1.5~10 mM) was added to the apical (AP) side. The basolateral (BL) side contained 1.5 mL prewarmed HBSS. After 120 min incubation at 37 °C and 5% CO2, the BL side solution was collected for calcium transport analysis.
Time-dependent CaCl2 transport assay: The AP side contained 0.5 mL of 7.5 mM CaCl2 solution, and the BL side 1.5 mL prewarmed HBSS. At designated intervals (30~180 min), 1 mL BL side solution was collected and replaced with equal volumes of fresh HBSS buffer to maintain consistency.
Different concentrations of DK solution (0.5~2 mg/mL, 0.5 mL) containing 7.5 mM CaCl2, or 0.5 mL of DK–Ca solution (0.5~2 mg/mL), were added to the AP side. The BL side contained 1.5 mL prewarmed HBSS. The control group contained 7.5 mM CaCl2 alone on the AP side. At designated intervals (30~180 min), 1 mL BL side solution was collected and replaced with equal volumes of fresh HBSS buffer to maintain consistency.
Calcium concentration in the collected sample was measured using a calcium colorimetric assay kit at 575 nm. Transported calcium was calculated as follows:(1) Tn=1.5Cn+1×∑k=1n-1Ck […]

Caco-2 monolayer [3] = assay: Effect of dietary components (vitamin D3, phytic acid) on calcium transport in Caco-2 monolayer; type: cell-based, human; settings: 120 min, control without dietary component, n = 3
Description: Vitamin D3 (0.5 μmol/L, dissolved in 0.1% ethanol) or phytic acid (1.8 mM, with a of phytic acid/calcium molar ratio of 0.24) was added to the AP side to evaluate the effect of dietary components on calcium transport. The group without an added dietary component served as the control group. After 120 min incubation, the BL side solution was collected for calcium transport analysis.

Caco-2 monolayer [4] = settings: cited from earlier work; for increase of intestinal calcium transport compared with the control group: within 30 min
Description: With 1~2 mg/mL of DK, the tran ... || This study’s results align with earlier findings regarding peptide–calcium complexes.

Caco-2 cells = assay: MTT cell viability assay; type: cell-based, human; settings: 24 h, concentration range 0~5 mg/mL, n = 3
Description: Caco-2 cells were maintained in complete DMEM medium containing 20% (v/v) FBS, 1% non-essential amino acids, and penicillin-streptomycin (100 U/mL−100 μg/mL) at 37 °C under 5% CO2 atmosphere, with medium replacement every 48 h. At 80–90% confluency, cells were seeded into 96-well plates (1 × 10^4 cells/well). After 24 h of incubation, the original medium was exchanged for a new solution containing CaCl2 (0~5 mg/mL), DK (0~5 mg/mL), DK + CaCl2 (1:1 w/w, 0~5 mg/mL), DK–Ca (0~5 mg/mL), 2-APB (0~75 μmol/L), cytochalasin D (0~2 μg/mL), and mβCD (0~5 mmol/L). After 24 h of incubation, the cell viability was assessed by MTT [21].

Caco-2 monolayer [5] = assay: Transepithelial permeability of sodium fluorescein (monolayer integrity); type: in vitro ADME, human; settings: Transwell, after 21 days of differentiation, mean ± SD
Description: as §1

[6] = cited from earlier work
Excerpt: Dietary calcium supplementation offers a direct solution to calcium deficiency. However, traditional calcium supplements (e.g., calcium carbonate) suffer from limitations such as low bioavailability and gastrointestinal irritation, which lead to reduced efficacy. […] This enhanced performance is primarily attributed to the peptide ... || This study’s results align with earlier findings regarding peptide–calcium complexes.

Caco-2 monolayers = settings: 120 min; cited from earlier work
Description: To assess component changes in DK–Ca after 120 min of calcium-promoting transport, solutions collected from the AP and BL sides of the monolayer were subjected to RP-HPLC analysis.

**Q.** Which results are given for `[Ca+2].[Cl-].[Cl-]` [CaCl2]?
**A.** fluorescence intensity (intracellular calcium influx) compared to the control group (Caco-2 monolayer [1]): significantly increased; transported calcium (Caco-2 monolayer [2]): 27.55 ± 1.20 μg/well; reduction of transported calcium by phytic acid compared to the control group (Caco-2 monolayer [3]; phytic acid 1.8 mM (phytic acid/calcium molar ratio 0.24) on AP side): 49.11%; increase of transported calcium by vitamin D3 compared to the control group (Caco-2 monolayer [3]; vitamin D3 0.5 μmol/L on AP side): 22.68%; decrease of calcium absorption by phytic acid (Caco-2 monolayer [4]): 79.86%

**Q.** With `C=C1[C@@H](C)[C@H]2[C@H](Cc3ccccc3)NC(=O)[C@]23[C@H](OC(C)=O)/C=C/[C@@](C)(O)C(=O)[C@@H](C)C/C=C/[C@H]3[C@@H]1O` [cytochalasin D, Cytochalasin D] as the compound, how does the “cytotoxicity to Caco-2 cells” value (Caco-2 cells) read?
**A.** no cytotoxicity

**Q.** What does the source list for `O=C([O-])c1ccccc1-c1c2ccc(=O)cc-2oc2cc([O-])ccc12.[Na+].[Na+]` [sodium fluorescein]?
**A.** apparent permeability coefficient (Papp) (Caco-2 monolayer [5]; 30 min): 7.17±0.22 ×10^-7 cm/s; apparent permeability coefficient (Papp) (Caco-2 monolayer [5]; 60 min): 7.47±0.25 ×10^-7 cm/s; apparent permeability coefficient (Papp) (Caco-2 monolayer [5]; 90 min): 7.56±0.64 ×10^-7 cm/s; apparent permeability coefficient (Papp) (Caco-2 monolayer [5]; 120 min): 8.35 ± 0.15 ×10-7 cm/s

**Q.** For “AHVGMSGEEPE [rice protein-derived peptide]”, which calcium-binding capacity [6] is on record?
**A.** 55.69 mg/g

**Q.** For “AHVGMSGEEPE-Ca [AHV-Ca, rice peptide–calcium complex]”, which transported calcium (Caco-2 monolayer [4]; Caco-2 monolayers) is on record?
**A.** 61.75 ± 13.23 μg/well

**Q.** And the “transported calcium, fold versus CaCl2” value (Caco-2 monolayer [4]; Caco-2 monolayers)?
**A.** 2.16 fold

**Q.** For “DHTKE [DHTKE–calcium complex, egg white hydrolysate-derived DHTKE–calcium complex]”, which “increase of transported calcium compared to the calcium-free control group” value (Caco-2 monolayer [4]) is on record?
**A.** seven-fold

**Q.** For “FDHIVY [tilapia collagen-derived peptide]”, which “increase of intestinal calcium transport compared with the control group” value (“increase of intestinal calcium transport” for short) (Caco-2 monolayer [4]) is on record?
**A.** 202%

**Q.** With “GPAGPHGPVG [tilapia collagen-derived peptide]” as the compound, how does the “increase of intestinal calcium transport” value (Caco-2 monolayer [4]) read?
**A.** 89%

**Q.** With LVFL as the compound, how does the calcium-binding capacity [6] read?
**A.** 79.50 mg/g

**Q.** With VLPVPQK as the compound, how does the calcium-binding capacity [6] read?
**A.** 129.46 mg/g

**Q.** For YGTGL, which calcium-binding capacity [6] is on record?
**A.** 76.03 mg/g

**Q.** For “YQEPVIAPKL [tilapia collagen-derived peptide]”, which “increase of intestinal calcium transport” value (Caco-2 monolayer [4]) is on record?
**A.** 130%

**Q.** For YQEPVPVRGPFPIIV, which “cleavage after culture in Caco-2 monolayers” value (Caco-2 monolayers) is on record?
**A.** cleaved into […] and […]
